Target: C171Q KasA acyl-enzyme mimic (Mycobacterium tuberculosis, UniProt P9WQD9, C171Q)
Format: binding, M. tuberculosis

| SMILES | Slow Onset | Slow or Rapid onset of binding to C171QKasA (words in Ki* column) |
| --- | --- | --- |
| C=C/C(C)=C/[C@@]1(C)SC(=O)C(CCCCc2ccc(F)cc2)=C1O [TLM6] | No | Rapid |
| C=C/C(C)=C/[C@@]1(C)SC(=O)C(C)=C1O [TLM, 5R-(+)-Thiolactomycin] | Yes | Slow, |
| C=C/C(C)=C/[C@@]1(C)SC(=O)C(C(=O)CCCCCCCCCCCCCCC)=C1O [TLM43] | No | – |
| C=C/C(C)=C/[C@@]1(C)SC(=O)C(C(=O)CCC)=C1O [TLM38] | No | – |
| C=C/C(C)=C/[C@@]1(C)SC(=O)C(CCc2ccc(Cl)cc2)=C1O [TLM31] | No | – |
| C=C/C(C)=C/[C@@]1(C)SC(=O)C(CCCCc2ccc(Cl)cc2)=C1O [TLM7] | No | Rapid |
| C=C/C(C)=C/[C@@]1(C)SC(=O)C(CCCCc2ccc(-c3ccccc3)cc2)=C1O [TLM9] | No | Rapid |
| C=C/C(C)=C/[C@@]1(C)SC(=O)C(C(=O)C(F)(F)F)=C1O [TLM36] | Yes | – |
| C=C/C(C)=C/[C@@]1(C)SC(=O)C(C(C)=O)=C1O [TLM35] | Yes | – |
| C=C/C(C)=C/[C@@]1(C)SC(=O)C(CCCN=[N+]=[N-])=C1O [TLM10] | Yes | Slow Onset |
| C=C/C(C)=C/[C@@]1(C)SC(=O)C(C(=O)OC)=C1O [TLM37] | No | – |
| C=C/C(C)=C/[C@@]1(C)SC(=O)C(CCCCn2cc(CNC(=O)[C@H](O)C(C)(C)CO)nn2)=C1O [TLM33] | No | – |
| C=C/C(C)=C/[C@@]1(C)SC(=O)C(CC)=C1O [TLM3, 5R-(+)-3-Ethylthiolactomycin] | Yes | Slow, |
| C=C/C(C)=C/[C@@]1(C)SC(=O)C(CCc2ccc(C)cc2)=C1O [TLM5] | No | Rapid |
| C=C/C(C)=C/[C@@]1(C)SC(=O)C=C1O [TLM2, 5R-(+)-3-Demethylthiolactomycin] | No | Rapid |
| C=C/C(C)=C/[C@@]1(C)SC(=O)C(CCC)=C1O [TLM4, 5R-(+)-3-Propylthiolactomycin] | Yes | Slow, |
| C=C/C(C)=C/[C@@]1(C)SC(=O)C(CCCCN=[N+]=[N-])=C1O [TLM32] | Yes | – |
| C=C/C(C)=C/[C@@]1(C)SC(=O)C(CCCCn2cc(CNC(=O)c3ccc(NS(=O)(=O)c4ccc(F)cc4)cc3)nn2)=C1O [TLM34] | No | – |
| C=C/C(C)=C/[C@@]1(C)SC(=O)C(C(=O)CCCCc2ccc(-c3ccccc3)cc2)=C1O [TLM45] | No | – |
| C=C/C(C)=C/[C@@]1(C)SC(=O)C=C1OCC(=O)NCCN=[N+]=[N-] [TLM40] | No | – |
| C=C/C(C)=C/[C@@]1(C)SC(=O)C(CCCCc2ccc(Br)cc2)=C1O [TLM8] | No | Rapid |
| C=C/C(C)=C/[C@@]1(C)SC(=O)C(C(=O)c2ccccc2C(=O)O)=C1O [TLM39] | No | – |

From patent US9056851B2, “Thiolactone antibiotics” (priority 2011, dated 2015)
